From patent publication US20100190809A1, “COMBINATION FORMULATIONS” (priority 2007, published 2010)

Assay: Tablet dissolution in 0.01M HCl+1% sodium laurylsulfate, 50 rpm
Type: physicochemical
Protocol: The tablets were measured on dissolution in a medium of 0.01M HCl+1% sodium laurylsulfate (SLS), 50 rpm. The results reported in the following tables are the percentages of release drug substance. Exp 1, exp 2, etc. refer to a first, a second, etc. experiment under the same conditions.
Two coating trials were performed using the tablet core samples with a compression force of 1030 daN and 1266 daN. The coating material was polyvinyl alcohol (PVA). The film coated tablets were measured on dissolution in medium 0.01 M HCl+1% SLS, 50 rpm.

| Structure (SMILES) | impact of the coating on the release (PVA film coated tablets) | release out of the coated tablets compared to the cores (PVA film coated tablets) | influence of the compression force on dissolution (TMC125 compared with TMC114) |
| --- | --- | --- | --- |
| CC(C)CN(C[C@@H](O)[C@H](Cc1ccccc1)NC(=O)O[C@H]1CO[C@H]2OCC[C@H]21)S(=O)(=O)c1ccc(N)cc1 [TMC114, (1S,2R,3R,3aS,6aR)-{3-[(4-aminobenzenesulfonyl)isobutyl-amino]-1-benzyl-2-hydroxypropyl}carbamic acid hexahydrofuro[2,3-b]furan-3-yl ester monoethanolate] | only a minor impact |  |  |
| Cc1cc(C#N)cc(C)c1Oc1nc(Nc2ccc(C#N)cc2)nc(N)c1Br [TMC125, 4-[[6-amino-5-bromo-2-[(4-cyanophenyl)amino]-4-pyrimidinyl]oxy]-3,5-dimethylbenzonitrile] |  | somewhat faster | more influenced |
